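Where inhibition never reached the appropriate level, the endpoint shown equals the highest concentration tested. Otherwise, values were interpolated linearly from a five-concentration, 48-hour dose response in 96-well plates. The concentration for full growth arrest is given as TGI.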
Tests used:
Assay in all cases: growth of human tumour cells (NCI), 48 h
[1] = system: KM12 colon
[2] = system: HL-60(TB) leukemia
[3] = system: HCT-15 colon
[4] = system: K-562 leukemia
[5] = system: RPMI-8226 leukemia
[6] = system: A549 NSCLC
[7] = system: OVCAR-4 ovarian
[8] = system: SF-539 CNS
[9] = system: SNB-75 CNS
[10] = system: U251 CNS
[11] = system: OVCAR-5 ovarian
[12] = system: NCI-H460 lung
[13] = system: SF-268 CNS
[14] = system: UACC-257 melanoma
[15] = system: UO-31 renal
[16] = system: HCT-116 colon
[17] = system: OVCAR-8 ovarian
[18] = system: NCI-H522 lung
[19] = system: SF-295 CNS
[20] = system: SNB-19 CNS

CC(C)CCCC(C)[C@H]1CCC(C2C[C@@H](O)[C@@H]3CC(O)[C@@H](O)C[C@]3(CO)C2=O)[C@]1(C)CCO (stereo partly drawn)
TGI [1]: 19.6 µM
TGI [2]: 38.6 µM
TGI [3]: > 66.8 µM
TGI [4]: 61.2 µM
TGI [5]: > 100 µM
TGI [6]: > 96.2 µM
TGI [7]: > 83.8 µM
TGI [8]: 39.6 µM
TGI [9]: 48.7 µM
TGI [10]: 37.7 µM
TGI [11]: 55.8 µM
TGI [12]: 45.2 µM
TGI [13]: 54.1 µM
TGI [14]: 46.5 µM
TGI [15]: 49.8 µM
TGI [16]: 38.2 µM
TGI [17]: > 76.1 µM
TGI [18]: 73.8 µM
TGI [19]: 40 µM
TGI [20]: 96.3 µM

N#Cc1ccccc1NC(=O)C(=O)C(C(=O)c1ccccc1F)C1OC(=O)c2ccccc21 (stereo not drawn)
TGI [1]: > 100 µM
TGI [2]: 54.6 µM
TGI [3]: > 100 µM
TGI [4]: > 100 µM
TGI [5]: 76.7 µM
TGI [6]: > 100 µM
TGI [7]: > 100 µM
TGI [8]: 82.9 µM
TGI [9]: > 100 µM
TGI [10]: 40.8 µM
TGI [11]: > 100 µM
TGI [12]: > 100 µM
TGI [13]: > 100 µM
TGI [14]: > 100 µM
TGI [15]: > 100 µM
TGI [16]: > 100 µM
TGI [17]: > 100 µM
TGI [18]: 75.1 µM
TGI [19]: > 100 µM
TGI [20]: > 100 µM

CC(=O)C(=Cc1cn(C)c(=O)n(C)c1=O)C(C)=O
TGI [1]: 189 µM
TGI [2]: 271 µM
TGI [3]: 218 µM
TGI [4]: 465 µM
TGI [5]: 284 µM
TGI [6]: 565 µM
TGI [7]: 273 µM
TGI [8]: 209 µM
TGI [9]: 240 µM
TGI [10]: 223 µM
TGI [11]: 235 µM
TGI [12]: 231 µM
TGI [13]: 526 µM
TGI [14]: 177 µM
TGI [15]: 175 µM
TGI [16]: 188 µM
TGI [17]: 324 µM
TGI [18]: 67.1 µM
TGI [19]: 254 µM
TGI [20]: 414 µM

C/C(=C1\N=C(c2ccccc2)OC1=O)c1ccccc1
TGI [1]: > 100 µM
TGI [2]: > 100 µM
TGI [3]: > 100 µM
TGI [4]: > 100 µM
TGI [5]: > 100 µM
TGI [6]: > 100 µM
TGI [7]: > 100 µM
TGI [8]: > 100 µM
TGI [9]: > 100 µM
TGI [10]: > 100 µM
TGI [11]: > 100 µM
TGI [12]: > 100 µM
TGI [13]: > 100 µM
TGI [14]: > 100 µM
TGI [15]: > 100 µM
TGI [16]: > 100 µM
TGI [17]: > 100 µM
TGI [18]: > 100 µM
TGI [19]: > 100 µM
TGI [20]: > 100 µM

C=CCC(O[Si](C)(C)C(C)(C)C)c1cc(O[Si](C)(C)C(C)(C)C)ccc1OC (stereo not drawn)
TGI [1]: > 100 µM
TGI [2]: > 100 µM
TGI [3]: > 100 µM
TGI [4]: > 100 µM
TGI [5]: > 100 µM
TGI [6]: > 100 µM
TGI [7]: > 100 µM
TGI [8]: > 100 µM
TGI [9]: > 100 µM
TGI [10]: > 100 µM
TGI [11]: > 100 µM
TGI [12]: > 100 µM
TGI [13]: > 100 µM
TGI [14]: > 100 µM
TGI [15]: > 100 µM
TGI [16]: > 100 µM
TGI [17]: > 100 µM
TGI [19]: > 100 µM
TGI [20]: > 100 µM

COC1/C=C/C(C)C(O)CC(O)/C=C/C(C)C(C(C)C(OC)C(C)CCC(=O)C(C)C(C/C=C/N(C)C=O)OC)OC(=O)/C=C/C=C(\C)CC(OC)CC2=CC(=O)O[C@@H](C(C)C(OC)C1)[C@H]2O (stereo partly drawn)
TGI [1]: 1.15 µM
TGI [2]: 0.252 µM
TGI [3]: 0.0893 µM
TGI [5]: 0.124 µM
TGI [6]: 0.235 µM
TGI [7]: 1.54 µM
TGI [8]: 0.0172 µM
TGI [9]: 0.00586 µM
TGI [10]: 0.102 µM
TGI [11]: 0.228 µM
TGI [12]: 0.162 µM
TGI [13]: 0.137 µM
TGI [14]: 0.169 µM
TGI [15]: 0.0648 µM
TGI [16]: 0.00952 µM
TGI [17]: 0.475 µM
TGI [18]: 0.093 µM
TGI [19]: < 0.005 µM
TGI [20]: 0.155 µM

COc1ccccc1NC(=O)C(=O)C(C(=O)c1ccccc1F)C1OC(=O)c2ccccc21 (stereo not drawn)
TGI [1]: 64 µM
TGI [2]: 56.5 µM
TGI [3]: 69.2 µM
TGI [4]: > 100 µM
TGI [5]: 69.6 µM
TGI [6]: > 100 µM
TGI [7]: > 100 µM
TGI [8]: 66.1 µM
TGI [9]: 62.8 µM
TGI [10]: 31.1 µM
TGI [11]: > 100 µM
TGI [12]: 74.7 µM
TGI [13]: > 100 µM
TGI [14]: > 100 µM
TGI [15]: 98.7 µM
TGI [16]: 44.3 µM
TGI [17]: 47.2 µM
TGI [18]: 35.7 µM
TGI [19]: > 100 µM
TGI [20]: 64 µM
